This is an account of results in patent publication US20110071150A1 (priority 2009, published 2011).

In the assay the test system is Jurkat IL-2 Production. Briefly: Jurkat IL-2 Production Assay. Format: cell-based. The following applies: Homo sapiens, Jurkat cell (ATCC), 18-20 h incubation, PHA 5 μg/mL with 1% FBS, or PMA/Ionomycin with 30% FBS (table does not say which). The gist of the method:
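Jurkat cells were exposed to compound (0.25% DMSO final) for 10 min, then stimulated for 18–20 h at 37 °C. The 1% FBS condition used 5 μg/mL PHA; the high-serum condition (30% FBS) used 50 ng/mL PMA plus 500 ng/mL ionomycin. IC50 was derived from IL-2 production.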

Each structure is given as a SMILES string.

By IC50 is commonly meant the concentration that gives 50% inhibition. The low end stands for inhibition by little substance, the high end for a need for much substance. In turn, `Cc1cc(C#N)ccc1-c1ccc2[nH]c(-c3cc(C#N)ccc3Cl)cc2c1` [Example 138, 4-(2-(2-Chloro-5-cyanophenyl)-1H-indol-5-yl)-3-methylbenzonitrile] showed a 50% inhibitory concentration (IC50) of 101 nM.

On to `COc1ccc(-c2cc3cc(-c4ccc(C#N)cc4C)ccc3[nH]2)c(C)n1` [Example 139, 4-(2-(6-methoxy-2-methylpyridin-3-yl)-1H-indol-5-yl)-3-methylbenzonitrile], for which 162 nM corresponded to half-maximal inhibition (IC50).

`COc1nccc(-c2cc3cc(-c4ccc(C#N)cc4C)ccc3[nH]2)c1Cl` [Example 140, 4-(2-(3-chloro-2-methoxypyridin-4-yl)-1H-indol-5-yl)-3-methylbenzonitrile]: half-maximal inhibition (IC50) was put at 142 nM.

The compound `Cc1cc(C#N)ccc1-c1ccc2[nH]c(-c3ccc(F)cc3F)cc2c1` [Example 141, 4-(2-(2,4-difluorophenyl)-1H-indol-5-yl)-3-methylbenzonitrile] had a 50% inhibitory concentration (IC50) of 660 nM.

`COc1ccc(F)c(-c2cc3cc(-c4ccc(C#N)cc4C)ccc3[nH]2)c1F` [Example 142, 4-(2-(2,6-difluoro-3-methoxyphenyl)-1H-indol-5-yl)-3-methylbenzonitrile]: the IC50 came out at 167 nM. This IC50 is about 4-fold lower than that of the compound before.

Compound `COc1cc(C)c(-c2cc3cc(-c4ccc(C#N)cc4C)ccc3[nH]2)cn1` [Example 143, 4-(2-(6-methoxy-4-methylpyridin-3-yl)-1H-indol-5-yl)-3-methylbenzonitrile] returned an IC50 of 182 nM.

With `Cc1cc(C#N)ccc1-c1ccc2[nH]c(-c3cnccc3C)cc2c1` [Example 144, methyl-4-(2-(4-methylpyridin-3-yl)-1H-indol-5-yl)benzonitrile], the half-maximal inhibitory concentration (IC50) worked out at 96 nM.

In turn, `Cc1cc(C#N)ccc1-c1ccc2[nH]c(-c3ccncc3C)cc2c1` [Example 145, methyl-4-(2-(3-methylpyridin-4-yl)-1H-indol-5-yl)benzonitrile] yielded an IC50 of 89 nM. The IC50 values of the last two compounds are within 1.5-fold of each other.

`Cc1cc(C#N)ccc1-c1ccc2[nH]c(-c3sccc3C)cc2c1` [Example 146, methyl-4-(2-(3-methylthiophen-2-yl)-1H-indol-5-yl)benzonitrile] registered an IC50 of 150 nM.

Compound `Cc1cc(C#N)ccc1-c1ccc2[nH]c(-c3cccnc3C)cc2c1` [Example 147, methyl-4-(2-(2-methylpyridin-3-yl)-1H-indol-5-yl)benzonitrile] returned a concentration for half-maximal inhibition (IC50) of 311 nM.

For `Cc1nc(C)c(-c2cc3cc(-c4ccc(C#N)cc4C)ccc3[nH]2)s1` [Example 148, 4-(2-(2,4-dimethylthiazol-5-yl)-1H-indol-5-yl)-3-methylbenzonitrile], the half-inhibitory concentration (IC50) worked out at 547 nM.

On to `Cc1cc(C#N)ccc1-c1ccc2[nH]c(-c3cscc3C)cc2c1` [Example 149, methyl-4-(2-(4-methylthiophen-3-yl)-1H-indol-5-yl)benzonitrile], for which 286 nM corresponded to half-maximal inhibition (IC50).

The compound `Cc1cc(C#N)ccc1-c1ccc2[nH]c(-c3ccnn3C)cc2c1` [Example 150, methyl-4-(2-(1-methyl-1H-pyrazol-5-yl)-1H-indol-5-yl)benzonitrile] yielded an IC50 of 618 nM.

Take `Cc1cc(C#N)ccc1-c1ccc2[nH]c(-c3c(C)noc3C)cc2c1` [Example 151, 4-(2-(3,5-dimethylisoxazol-4-yl)-1H-indol-5-yl)-3-methylbenzonitrile]: the 50% inhibitory concentration (IC50) came out at 158 nM.

The compound `COc1cc(C)c(-c2ccc3[nH]c(-c4cccc(C#N)c4F)cc3c2)cn1` [Example 152, 2-fluoro-3-(5-(6-methoxy-4-methylpyridin-3-yl)-1H-indol-2-yl)benzonitrile] came in with an IC50 of 731 nM.

`COCCOc1cc(F)c(-c2cc3cc(-c4ccc(C#N)cc4C)ccc3[nH]2)c(F)c1` [Example 153, 4-(2-(2,6-difluoro-4-(2-methoxyethoxy)phenyl)-1H-indol-5-yl)-3-methylbenzonitrile] registered an IC50 of 331 nM.

The compound `Cc1cc(C#N)ccc1-c1ccc2[nH]c(-c3c(F)cc(OCCO)cc3F)cc2c1` [Example 154, 4-(2-(2,6-difluoro-4-(2-hydroxyethoxy)phenyl)-1H-indol-5-yl)-3-methylbenzonitrile] showed a half-inhibitory concentration (IC50) of 586 nM.

Turning to `Cc1cc(C#N)ccc1-c1ccc2[nH]c(-c3c(F)cc(OCCCC#N)cc3F)cc2c1` [Example 155, 4-(2-(4-(3-cyanopropoxy)-2,6-difluorophenyl)-1H-indol-5-yl)-3-methylbenzonitrile], half-maximal inhibition (IC50) was put at 87 nM.

In turn, `Cc1cc(C#N)ccc1-c1ccc2[nH]c(-c3c(F)cc(OCCCO)cc3F)cc2c1` [Example 156, 4-(2-(2,6-difluoro-4-(3-hydroxypropoxy)phenyl)-1H-indol-5-yl)-3-methylbenzonitrile] gave a concentration for half-maximal inhibition (IC50) of 130 nM.

Take `Cc1cc(C#N)ccc1-c1ccc2[nH]c(-c3c(F)cc(O)cc3F)cc2c1` [Example 157, 4-(2-(2,6-difluoro-4-hydroxyphenyl)-1H-indol-5-yl)-3-methylbenzonitrile]: the IC50 worked out at 222 nM.

The compound `Cc1cc(C#N)ccc1-c1ccc2[nH]c(-c3c(F)cccc3Cl)cc2c1` [Example 158, 4-[2-(2-chloro-6-fluorophenyl)-1H-indol-5-yl]-3-methylbenzonitrile] displayed a 50% inhibitory concentration (IC50) of 16 nM.

Turning to `Cc1cc(S(=O)(=O)N(C)C)ccc1-c1ccc2[nH]c(-c3c(F)cccc3Cl)cc2c1` [Example 159, 4-[2-(2-Chloro-6-fluoro-phenyl)-1H-indol-5-yl]-3,N,N-trimethyl-benzenesulfonamide], the 50% inhibitory concentration (IC50) amounted to 25 nM.

With `Cc1cc(Cl)ncc1-c1ccc2[nH]c(-c3c(F)cccc3Cl)cc2c1` [Example 160, 2-(2-Chloro-6-fluoro-phenyl)-5-(6-chloro-4-methyl-pyridin-3-yl)-1H-indole], the IC50 is 18 nM.

Consider `Cc1cc(C#N)cnc1-c1ccc2[nH]c(-c3c(F)cccc3Cl)cc2c1` [Example 161, 6-(2-(2-chloro-6-fluorophenyl)-1H-indol-5-yl)-5-methylnicotinonitrile], for which the IC50 turned out to be 99 nM.

Consider `Cc1cc(C#N)ncc1-c1ccc2[nH]c(-c3c(F)cccc3Cl)cc2c1` [Example 162, 5-(2-(2-chloro-6-fluorophenyl)-1H-indol-5-yl)-4-methylpicolinonitrile], for which inhibition was half-maximal at 34 nM (IC50).

Compound `COCCOc1cc(C)c(-c2ccc3[nH]c(-c4c(F)cccc4Cl)cc3c2)cn1` [Example 163, 2-(2-chloro-6-fluorophenyl)-5-(6-(2-methoxyethoxy)-4-methylpyridin-3-yl)-1H-indole] yielded a half-inhibitory concentration (IC50) of 108 nM.

The compound `CCOc1cc(C)c(-c2ccc3[nH]c(-c4c(F)cccc4Cl)cc3c2)cn1` [Example 164, 2-(2-chloro-6-fluorophenyl)-5-(6-ethoxy-4-methylpyridin-3-yl)-1H-indole] came in with an IC50 of 33 nM. Against the preceding compound, the IC50 is about 3.3-fold lower.

`Cc1cc(N2CCOCC2)ncc1-c1ccc2[nH]c(-c3c(F)cccc3Cl)cc2c1` [Example 165, 4-(5-(2-(2-chloro-6-fluorophenyl)-1H-indol-5-yl)-4-methylpyridin-2-yl)morpholine] displayed an IC50 of 316 nM.

In turn, `CNc1cc(C)c(-c2ccc3[nH]c(-c4c(F)cccc4Cl)cc3c2)cn1` [Example 166, 5-(2-(2-chloro-6-fluorophenyl)-1H-indol-5-yl)-N,4-dimethylpyridin-2-amine] had an IC50 of 518 nM.

`Cc1cc(S(=O)(=O)N(C)C)cnc1-c1ccc2[nH]c(-c3c(F)cccc3Cl)cc2c1` [Example 167, 6-(2-(2-chloro-6-fluorophenyl)-1H-indol-5-yl)-N,N,5-trimethylpyridine-3-sulfonamide] yielded an IC50 of 34 nM. Against the preceding compound, the IC50 is about 15-fold lower.

In the case of `CNS(=O)(=O)c1ccc(-c2ccc3[nH]c(-c4c(F)cccc4Cl)cc3c2)c(C)c1` [Example 168, 4-(2-(2-chloro-6-fluorophenyl)-1H-indol-5-yl)-N,3-dimethylbenzenesulfonamide], the 50% inhibitory concentration (IC50) came out at 44 nM.

In turn, `Cc1cc(S(=O)(=O)N2CCOCC2)ccc1-c1ccc2[nH]c(-c3c(F)cccc3Cl)cc2c1` [Example 169, 4-(4-(2-(2-chloro-6-fluorophenyl)-1H-indol-5-yl)-3-methylphenylsulfonyl)morpholine] showed a half-maximal inhibitory concentration (IC50) of 117 nM.

With `Cc1cc(S(=O)(=O)N2CCN(C)CC2)ccc1-c1ccc2[nH]c(-c3c(F)cccc3Cl)cc2c1` [Example 170, 2-(2-chloro-6-fluorophenyl)-5-(2-methyl-4-(4-methylpiperazin-1-ylsulfonyl)phenyl)-1H-indole], 170 nM corresponded to half-maximal inhibition (IC50).

Take `Cc1cc(-c2nnn(C)n2)ccc1-c1ccc2[nH]c(-c3c(F)cccc3Cl)cc2c1` [Example 171, 2-(2-chloro-6-fluorophenyl)-5-(2-methyl-4-(2-methyl-2H-tetrazol-5-yl)phenyl)-1H-indole]: the half-inhibitory concentration (IC50) turned out to be 17 nM.

Regarding `COc1cc(C#N)ccc1-c1ccc2[nH]c(-c3c(F)cccc3Cl)cc2c1` [Example 172, 4-[2-(2-Chloro-6-fluoro-phenyl)-1H-indol-5-yl]-3-methoxy-benzonitrile], the IC50 came out at 15 nM.

With `Cc1cc(S(C)(=O)=O)ncc1-c1ccc2[nH]c(-c3c(F)cccc3Cl)cc2c1` [Example 173, 2-(2-Chloro-6-fluoro-phenyl)-5-(6-methanesulfonyl-4-methyl-pyridin-3-yl)-1H-indole], it took 12 nM to reach half-maximal inhibition (IC50).

In the case of `CCc1cc(Cl)ncc1-c1ccc2[nH]c(-c3c(F)cccc3Cl)cc2c1` [Example 174, 5-(6-Chloro-4-ethyl-pyridin-3-yl)-2-(2-chloro-6-fluoro-phenyl)-1H-indole], half-maximal inhibition (IC50) was put at 22 nM.

Consider `CCc1sc(-c2cccnc2)nc1-c1ccc2[nH]c(-c3c(F)cccc3Cl)cc2c1` [Example 175, 4-[2-(2-chloro-6-fluorophenyl)-1H-indol-5-yl]-5-ethyl-2-(pyridin-3-yl)thiazole], for which the concentration for half-maximal inhibition (IC50) came to 11 nM.

In the case of `Cc1sc(-c2cnccn2)nc1-c1ccc2[nH]c(-c3c(F)cccc3Cl)cc2c1` [Example 176, 2-(2-Chloro-6-fluoro-phenyl)-5-(5-methyl-2-pyrazin-2-yl-thiazol-4-yl)-1H-indole], 14 nM corresponded to half-maximal inhibition (IC50).

Consider `Cc1sc(-c2cncnc2)nc1-c1ccc2[nH]c(-c3c(F)cccc3Cl)cc2c1` [Example 177, 2-(2-Chloro-6-fluoro-phenyl)-5-(5-methyl-2-pyrimidin-5-yl-thiazol-4-yl)-1H-indole], for which it took 82 nM to reach half-maximal inhibition (IC50).
